# Test results: article PMC8237267 (Journal of Medicinal Chemistry, 2021)
# Legend:
# [1] = test system: pPF (primary pooled fibroblasts from 250 donors); experiment: Cytotoxicity assay (Cell Titer-Blue, 72 h); assay type: cell-based; conditions: Fibroblast, read-out: Cellular IC50 pPF
# DERL-2 = experiment: Cytotoxicity assay (Cell Titer-Blue, 72 h); assay type: cell-based; conditions: γδ T-NHL; one representative of three experiments; read-out: IC50 (heat map) DERL-2
# KHYG-1 = experiment: Cytotoxicity assay (Cell Titer-Blue, 72 h); assay type: cell-based; conditions: ANKL, one representative of three experiments, read-out: IC50 (heat map) KHYG-1
# Myla = experiment: Cytotoxicity assay (Cell Titer-Blue, 72 h); assay type: cell-based; conditions: CTCL; one representative of three experiments; read-out: IC50 (heat map) Myla
# DND-41 = experiment: Cytotoxicity assay (Cell Titer-Blue, 72 h); assay type: cell-based; conditions: DND41; T-ALL; one representative of three experiments; read-out: IC50 (heat map) DND-41
# SUP-T11 = experiment: Cytotoxicity assay (Cell Titer-Blue, 72 h); assay type: cell-based; conditions: SUPT11; T-ALL/T-PLL like; one representative of three experiments; read-out: IC50 (heat map) SUP-T11
# Mac1 = experiment: Cytotoxicity assay (Cell Titer-Blue, 72 h); assay type: cell-based; conditions: ALK- ALCL; one representative of three experiments; read-out: IC50 (heat map) Mac1
# Method: (§1) The PTCL cell lines, KHYG-1, NK-92, SNK6, DERL-2, Mac1, 1305 Myla, Hut78, SU-DHL-1 or T-ALL cell lines SUP-T11, DND-41, and MOLT4 were maintained in RPMI-1640 supplemented with 10% FBS, 0.06 g/L penicillin/0.1 g/L streptomycin (Pen/Strep, Gibco), and 2 mM L-glutamine (Gibco). Culture media of KHYG-1, NK-92, SNK6, and DERL-2 cells was additionally supplemented with 2.5 ng/mL recombinant human IL-2 (ImmunoTools GmbH, Germany). The authenticity of PTCL cell lines was confirmed by analysis of highly polymorphic short tandem repeat loci (STR) using the PowerPlex 16 HS System (Promega; performed by Microsynth AG, Switzerland).
# (§2) Cells were plated in 96-well flat-bottom sterile culture plates with low-evaporation lids (Costar #3997). The inhibitors and a vehicle control (0.5% DMSO) were added to the cells following 24 h. After 72 h, Cell Titer-Blue (Promega #G808A) was added to each well (20 μL), and the fluorescence was measured at 560/590 nm using a Cytation S63 spectrophotometer (BioTek) or a GloMax Discover Microplate Reader (Promega, Madison, WI, USA). GraphPad Prism 6.0 (GraphPad Software Inc.) was used to determine the IC50 values.
# Hut78 = experiment: Cytotoxicity assay (Cell Titer-Blue, 72 h); assay type: cell-based; conditions: Homo sapiens, CTCL, one representative of three experiments, read-out: IC50 (heat map) Hut78
# Method: as §1, §2
# SU-DHL-1 = experiment: Cytotoxicity assay (Cell Titer-Blue, 72 h); assay type: cell-based; conditions: Homo sapiens, ALK+ ALCL, one representative of three experiments, read-out: IC50 (heat map) SU-DHL-1
# NK-92 = experiment: Cytotoxicity assay (Cell Titer-Blue, 72 h); assay type: cell-based; conditions: NK92; LGL; one representative of three experiments; read-out: IC50 (heat map) NK-92
# acetylated histone H3 = experiment: Western blot in MV4-11 cells; assay type: cell-based; conditions: MV4-11, 6 h
# Method: (§3) Briefly, MV4-11 cells were incubated with inhibitors prior to cell lysis with radioimmunoprecipitation assay (RIPA) buffer (20 mM Tris pH 7.4, 150 mM NaCl, 0.5% deoxycholate, 1% Triton X-100, and 0.1% sodium dodecyl sulfate (SDS)). Total protein content was determined through a BCA assay (ThermoFisher), resolved via a 4–20% polyacrylamide SDS gel, and transferred to a nitrocellulose membrane (Bio-Rad). The membranes were blocked with a 5% solution (skimmed milk powder in PBS-T). This was followed by incubation at 4 °C (overnight) with the following antibodies: acetylated α-tubulin mouse monoclonal (MABT868, EMD Millipore), acetylated histone H3 (Ac-Lys18, 07–354, Sigma), PARP-1 (ab227244, Abcam), apoptosis Western blot cocktail (136812, Abcam), cleaved PARP-1 (ab32561, Abcam), and HSC70 (sc-7298, Santa Cruz). Following overnight incubation, horseradish peroxidase (HRP)-conjugated goat anti-mouse IgG secondary antibody (7076, Cell Signaling) or HRP-linked anti-rabbit IgG secondary antibody (7074, Cell Signaling) was applied to the membrane in a 1:5000 dilution. The bands were visualized using clarity Western ECL substrate luminal/enhancer solution and peroxide solution. Western blotting analysis was carried out using Image lab software (Bio-Rad).[47],[50],[70]
# MOLM-13 = experiment: Cytotoxicity assay (Cell Titer-Blue, 72 h); assay type: cell-based; conditions: Homo sapiens, AML, one representative of three experiments, read-out: IC50 (heat map) MOLM-13
# [2] = test system: HUVEC (primary human umbilical vein endothelial cells); experiment: Cytotoxicity assay (Cell Titer-Blue, 72 h); assay type: cell-based; conditions: read-out: Cellular IC50 HUVEC
# [3] = test system: cleavage of PARP-1 and Caspase-3; experiment: Western blot of apoptosis markers in MV4-11 cells; assay type: cell-based; conditions: MV4-11, 6 h, 5 μM
# Method: as §3
# SNK6 = experiment: Cytotoxicity assay (Cell Titer-Blue, 72 h); assay type: cell-based; conditions: T/NK cell lymphoma, one representative of three experiments, read-out: IC50 (heat map) SNK6
# MV4-11 cells = experiment: FACS apoptosis detection assay (Annexin V/PI); assay type: cell-based; conditions: MV4-11, 18 h
# Method: MV4-11 cells were prepared, dosed, and washed with cold 1× PBS. The resulting cell pellets were resuspended in 1× Binding Buffer (1 × 10^6 cell/mL) from the FITC Annexin V Apoptosis Detection Kit I (BD Pharmingen). Subsequently, the dyes annexin V (5 μL) and propidium iodide (PI, 5 μL) were added to 2.5 × 10^5 cells (250 μL). The suspension was thoroughly mixed and incubated in the dark for 15 min. Following the addition of 250 μL of 1× binding buffer, the cells were analyzed by flow cytometry within 1 h using the Cytoflex S system (Beckman Coulter).
# MRC-9 = experiment: Cytotoxicity assay (Cell Titer-Blue, 72 h); assay type: cell-based; conditions: MRC9; MRC-9 (healthy fibroblasts); read-out: In cellulo IC50 MRC-9
# acetylation of α-tubulin = experiment: Immunofluorescence assay in HeLa cells; assay type: cell-based; conditions: 6 h, increasing doses
# Method: HeLa cells were plated to subconfluency on a 96-well plate (clear bottom black from Fisher Scientific). As above, inhibitors were introduced following 24 h. The cells were washed with 1× PBS, fixed with 4% formaldehyde (Millipore Sigma), permeabilized with 1% Triton X-100 (Millipore Sigma), and blocked in 5% bovine serum albumin (BSA) (BioShop) for 1 h at room temperature. Following this treatment, the cells were incubated in a cocktail composed of acetylated α-tubulin mouse monoclonal (1:100 dilution, MD Millipore) and acetylated histone H3 (1:50 dilution, Ac-Lys18, Sigma) antibodies. Secondary antibodies anti-mouse Alexa Fluor 647 and anti-rabbit Alexa Fluor 488 were used for immunofluorescent detection. Cells were counterstained for nucleic acids using 4′,6-diamidino-2-phenylindole (DAPI) (ThermoFisher Scientific). The cells were imaged with a Cytation S63 spectrophotometer and the fluorescence intensity was determined using ImageJ (n = 3). Two-way ANOVA with Tukey’s multiple comparisons test were performed using GraphPad Prism 6.0 (GraphPad Software Inc.). A p-value ≤ 0.05 was considered significant.
# [4] = In vivo PK study in CD-1 male mice; conditions: mouse, plasma, CD-1 mice, IP, 20 mg/kg
# [5] = test system: NHF (normal human fibroblasts); experiment: Cytotoxicity assay (Cell Titer-Blue, 72 h); assay type: cell-based; conditions: Fibroblast, read-out: Cellular IC50 NHF
# MOLT4 = experiment: Cytotoxicity assay (Cell Titer-Blue, 72 h); assay type: cell-based; conditions: Homo sapiens, MOLT-4; T-ALL; one representative of three experiments; read-out: IC50 (heat map) MOLT4
# MV4-11 = experiment: Cytotoxicity assay (Cell Titer-Blue, 72 h); assay type: cell-based; conditions: Homo sapiens; MV4-11 (AML); read-out: In cellulo IC50 MV4-11
compound,measurement,setting,value
O=C(CCCCCCNC(=O)c1cnc(N(c2ccccc2)c2ccccc2Cl)nc1)NO [Citarinostat],IC50,[1],7.44 µM
same,IC50,DERL-2,1020 nM
same,IC50,KHYG-1,1200 nM
same,IC50,Myla,7.97 µM
same,IC50,DND-41,1960 nM
same,IC50,SUP-T11,3.94 µM
same,IC50,Mac1,1780 nM
same,IC50,Hut78,3.77 µM
same,IC50,SU-DHL-1,4.66 µM
same,IC50,NK-92,1970 nM
same,acetylated histone H3 levels (Western blot),acetylated histone H3,higher with citarinostat in comparison to KT-531
same,IC50,MOLM-13,1980 nM
same,IC50,[2],4.86 µM
same,cleavage of PARP-1 and Caspase-3,[3],absence of cleaved Caspase-3 and PARP-1
same,IC50,SNK6,1900 nM
same,Early Apoptosis,MV4-11 cells; 0.5 μM,9%
same,Late Apoptosis,MV4-11 cells; 1 μM,10%
same,Healthy (nonapoptotic),MV4-11 cells; 2 μM,47%
same,IC50,MRC-9,> 30 µM
same,acetylation of α-tubulin (immunofluorescence),acetylation of α-tubulin,weaker acetylation as compared to KT-531
same,AUC(0-t),[4]; read-out: In vivo AUClast (overall exposure),4160 ng·h/mL
same,half-life,[4]; read-out: In vivo t1/2,15 min
same,IC50,[5],5.74 µM
same,IC50,MOLT4,1720 nM
same,IC50,MV4-11,1340 nM
